Assay results from patent publication EP0221541A2, “Quinolonecarboxylic acid derivatives and their preparation” (KYORIN PHARMACEUTICAL CO., LTD., priority 1985, dated 1987).
In brackets after ≈: the same amount, converted by molar mass. Where a name gives a salt, the structure may show the parent alone. Read-outs that look alike come from different tables or passages of the source.

Tests used:
Assay type in all cases: cell-based
[1] = tested on: S. epidermidis IID 866; assay: MIC, antibacterial spectrum (aerobic bacteria); conditions: Staphylococcus epidermidis, IID866; S. epidermidis IID 866, Gram +, 10^6 cells/ml, aerobic; read-out: MIC
[2] = tested on: F. varium KYA 8501; assay: MIC, antibacterial spectrum (anaerobic bacteria); conditions: Fusobacterium varium, KYA8501, F. varium KYA 8501, Gram -, 10^6 cells/ml
[3] = tested on: Morganella morganii IID 602; assay: MIC, antibacterial spectrum (aerobic bacteria); conditions: IID602, Morganella morganii IID 602, Gram -, 10^6 cells/ml
[4] = tested on: S. pyogenes IID 689 (S-8); assay: MIC, antibacterial spectrum (aerobic bacteria); conditions: Streptococcus pyogenes, IID689; S. pyogenes IID 689 (S-8), Gram +, 10^6 cells/ml, aerobic; read-out: MIC
[5] = tested on: Yersinia enterocolitica IID 981; assay: MIC, antibacterial spectrum (aerobic bacteria); conditions: IID981; Yersinia enterocolitica IID 981, Gram -, 10^6 cells/ml, aerobic; read-out: MIC
[6] = tested on: Serratia marcescens IID 618; assay: MIC, antibacterial spectrum (aerobic bacteria); conditions: IID618
[7] = tested on: Pseudomonas aeruginosa V-1; assay: MIC, antibacterial spectrum (aerobic bacteria); conditions: V1
[8] = tested on: Veillonella parvula KYA 10790; assay: MIC, antibacterial spectrum (anaerobic bacteria); conditions: KYA10790, Veillonella parvula KYA 10790, Gram -, 10^6 cells/ml
[9] = tested on: Peptostreptococcus anaerobius KYA 27337; assay: MIC, antibacterial spectrum (anaerobic bacteria); conditions: KYA27337; Peptostreptococcus anaerobius KYA 27337, Gram +, 10^6 cells/ml, anaerobic; read-out: MIC
[10] = tested on: S. aureus IID 670 (Terajima); assay: MIC, antibacterial spectrum (aerobic bacteria); conditions: Staphylococcus aureus, IID670; S. aureus IID 670 (Terajima), Gram +, 10^6 cells/ml, aerobic; read-out: MIC
[11] = tested on: P. mirabilis IID 994; assay: MIC, antibacterial spectrum (aerobic bacteria); conditions: Proteus mirabilis, IID994; P. mirabilis IID 994, Gram -, 10^6 cells/ml, aerobic; read-out: MIC
[12] = tested on: Citrobacter freundii IID 976; assay: MIC, antibacterial spectrum (aerobic bacteria); conditions: IID976; Citrobacter freundii IID 976, Gram -, 10^6 cells/ml, aerobic; read-out: MIC
[13] = tested on: B. fragilis 25285; assay: MIC, antibacterial spectrum (anaerobic bacteria); conditions: Bacteroides fragilis; B. fragilis 25285, Gram -, 10^6 cells/ml, anaerobic; read-out: MIC
[14] = tested on: Streptococcus pneumoniae IID 552; assay: MIC, antibacterial spectrum (aerobic bacteria); conditions: IID552; Streptococcus pneumoniae IID 552, Gram +, 10^6 cells/ml, aerobic; read-out: MIC
[15] = tested on: Proteus vulgaris IFO 3167; assay: MIC, antibacterial spectrum (aerobic bacteria); conditions: IFO3167; Proteus vulgaris IFO 3167, Gram -, 10^6 cells/ml, aerobic; read-out: MIC
[16] = tested on: C. ramosum; assay: MIC, antibacterial spectrum (anaerobic bacteria); conditions: Thomasclavelia ramosa; C. ramosum, Gram +, 10^6 cells/ml, anaerobic; read-out: MIC
[17] = tested on: E. coli ATCC 10536; assay: MIC, antibacterial spectrum (aerobic bacteria); conditions: Escherichia coli, ATCC10536; E. coli ATCC 10536, Gram -, 10^6 cells/ml, aerobic; read-out: MIC
[18] = tested on: Eubacterium lentum GAI 5242; assay: MIC, antibacterial spectrum (anaerobic bacteria); conditions: Eggerthella lenta, GAI5242; Eubacterium lentum GAI 5242, Gram +, 10^6 cells/ml, anaerobic; read-out: MIC
[19] = tested on: Escherichia coli NIHJ JC-2; assay: MIC, antibacterial spectrum (aerobic bacteria); conditions: NIHJJC2, Escherichia coli NIHJ JC-2, Gram -, 10^6 cells/ml
[20] = tested on: Peptococcus magnus KY 017; assay: MIC, antibacterial spectrum (anaerobic bacteria); conditions: Finegoldia magna, KY017; Peptococcus magnus KY 017, Gram +, 10^6 cells/ml, anaerobic; read-out: MIC
[21] = tested on: E. coli ML 4707; assay: MIC, antibacterial spectrum (aerobic bacteria); conditions: Escherichia coli, ML4707; E. coli ML 4707, Gram -, 10^6 cells/ml, aerobic; read-out: MIC
[22] = tested on: S. pyogenes IID 692; assay: MIC, antibacterial spectrum (aerobic bacteria); conditions: Streptococcus pyogenes, IID692; S. pyogenes IID 692, Gram +, 10^6 cells/ml, aerobic; read-out: MIC
[23] = tested on: Pst. micros UPI 5464-1; assay: MIC, antibacterial spectrum (anaerobic bacteria); conditions: Parvimonas micra, UPI54641, Pst. micros UPI 5464-1, Gram +, 10^6 cells/ml
[24] = tested on: C. perfringens KYA 13123; assay: microbe, parasite or virus in culture; conditions: Clostridium perfringens, KYA13123
[25] = tested on: E. faecalis IID 682; assay: MIC, antibacterial spectrum (aerobic bacteria); conditions: Enterococcus faecalis, IID682; E. faecalis IID 682, Gram +, 10^6 cells/ml, aerobic; read-out: MIC
[26] = tested on: S. marcescens GN 7577; assay: MIC, antibacterial spectrum (aerobic bacteria); conditions: Serratia marcescens, GN7577; S. marcescens GN 7577, Gram -, 10^6 cells/ml, aerobic; read-out: MIC
[27] = tested on: Clostridium difficile I-E; assay: MIC, antibacterial spectrum (anaerobic bacteria); conditions: Clostridioides difficile, Gram +, 10^6 cells/ml
[28] = tested on: Enterobacter cloacae IID 977; assay: MIC, antibacterial spectrum (aerobic bacteria); conditions: IID977
[29] = tested on: Staphylococcus aureus 209 P; assay: MIC, antibacterial spectrum (aerobic bacteria); conditions: Staphylococcus aureus 209 P, Gram +, 10^6 cells/ml, aerobic; read-out: MIC
[30] = Serratia marcescens IID 618, Gram -, 10^6 cells/ml, aerobic, read-out: MIC
[31] = Pseudomonas aeruginosa V-1, Gram -, 10^6 cells/ml, aerobic, read-out: MIC
[32] = Enterobacter cloacae IID 977, Gram -, 10^6 cells/ml, aerobic, read-out: MIC

Structure (SMILES) | MIC [1] | MIC [2] | MIC [3] | MIC [4] | MIC [5] | MIC [8] | MIC [9] | MIC [10] | MIC [11] | MIC [12] | MIC [13] | MIC [14] | MIC [15] | MIC [16] | MIC [17] | MIC [18] | MIC [19] | MIC [20] | MIC [21] | MIC [22] | further results
O=C(O)c1cn(C2CC2)c2c(F)c(N3CCC(CNCCO)C3)c(F)cc2c1=O (stereo not drawn) [Exp. 1, 1-Cyclopropyl-6,8-difluoro-1,4-dihydro-7-[3-(2-hydroxyethylaminomethyl)-1-pyrrolidinyl]-4-oxo-3-quinolinecarboxylic acid] | 0.025 µg/mL (≈ 0.0614 µM) | 0.78 µg/mL (≈ 1.91 µM) | 0.39 µg/mL (≈ 0.957 µM) | 0.025 µg/mL (≈ 0.0614 µM) | 0.2 µg/mL (≈ 0.491 µM) | 0.39 µg/mL (≈ 0.957 µM) | ≤ 0.05 µg/mL | 0.05 µg/mL (≈ 0.123 µM) | 0.05 µg/mL (≈ 0.123 µM) | 0.05 µg/mL (≈ 0.123 µM) | 1.56 µg/mL (≈ 3.83 µM) | 0.05 µg/mL (≈ 0.123 µM) | 0.05 µg/mL (≈ 0.123 µM) | 0.78 µg/mL (≈ 1.91 µM) | 0.05 µg/mL (≈ 0.123 µM) | 0.78 µg/mL (≈ 1.91 µM) | 0.025 µg/mL (≈ 0.0614 µM) | ≤ 0.05 µg/mL | 0.05 µg/mL (≈ 0.123 µM) | 0.05 µg/mL (≈ 0.123 µM) | MIC [6, 30]: 0.39 µg/mL (≈ 0.957 µM); MIC [7, 31]: 0.78 µg/mL (≈ 1.91 µM); MIC [23]: 0.39 µg/mL (≈ 0.957 µM); MIC [24]: 0.2 µg/mL (≈ 0.491 µM); MIC [25]: 0.1 µg/mL (≈ 0.245 µM); MIC [26]: 3.13 µg/mL (≈ 7.68 µM); MIC [27]: 0.78 µg/mL (≈ 1.91 µM); MIC [28, 32]: 0.2 µg/mL (≈ 0.491 µM); MIC [29]: 0.05 µg/mL (≈ 0.123 µM)
O=C(O)c1cn(C2CC2)c2c(Cl)c(N3CCC(CNCCO)C3)c(F)cc2c1=O (stereo not drawn) [Exp. 3, 8-Chloro-1-cyclopropyl-6-fluoro-1,4-dihydro-7-(3-(2-hydroxyethylaminomethyl)-1-pyrrolidinyl]-4-oxo-3-quinolinecarboxylic acid] | 0.0125 µg/mL (≈ 0.0295 µM) | 0.39 µg/mL (≈ 0.92 µM) | 0.39 µg/mL (≈ 0.92 µM) | 0.0125 µg/mL (≈ 0.0295 µM) | 0.1 µg/mL (≈ 0.236 µM) | 0.1 µg/mL (≈ 0.236 µM) | 0.025 µg/mL (≈ 0.059 µM) | 0.025 µg/mL (≈ 0.059 µM) | 0.05 µg/mL (≈ 0.118 µM) | 0.05 µg/mL (≈ 0.118 µM) | 0.2 µg/mL (≈ 0.472 µM) | 0.0125 µg/mL (≈ 0.0295 µM) | 0.025 µg/mL (≈ 0.059 µM) | 0.39 µg/mL (≈ 0.92 µM) | 0.025 µg/mL (≈ 0.059 µM) | 0.2 µg/mL (≈ 0.472 µM) | 0.0125 µg/mL (≈ 0.0295 µM) | 0.05 µg/mL (≈ 0.118 µM) | 0.05 µg/mL (≈ 0.118 µM) | 0.0125 µg/mL (≈ 0.0295 µM) | MIC [6, 30]: 0.2 µg/mL (≈ 0.472 µM); MIC [7, 31]: 0.2 µg/mL (≈ 0.472 µM); MIC [23]: 0.1 µg/mL (≈ 0.236 µM); MIC [24]: 0.05 µg/mL (≈ 0.118 µM); MIC [25]: 0.1 µg/mL (≈ 0.236 µM); MIC [26]: 1.56 µg/mL (≈ 3.68 µM); MIC [27]: 0.2 µg/mL (≈ 0.472 µM); MIC [28, 32]: 0.1 µg/mL (≈ 0.236 µM); MIC [29]: 0.0125 µg/mL (≈ 0.0295 µM)
O=C(O)c1cn(C2CC2)c2cc(N3CCC(CNCCO)C3)c(F)cc2c1=O (stereo not drawn) [Exp. 2, l-Cyclopropyl-6-fluoro-l,4-dihydro-7-[3-(2-hydroxyethylaminomethyl)-l-pyrrolidinyl]-4-oxo-3-quinolinecarboxylic acid hydrochloride] | 0.1 µg/mL | 25 µg/mL | 3.13 µg/mL | 0.1 µg/mL | 0.78 µg/mL | 3.13 µg/mL | 0.78 µg/mL | 0.2 µg/mL | 0.39 µg/mL | 0.39 µg/mL | 50 µg/mL | 0.1 µg/mL | 0.2 µg/mL | 25 µg/mL | 0.1 µg/mL | 3.13 µg/mL | 0.1 µg/mL | 0.2 µg/mL | 0.2 µg/mL | 0.1 µg/mL | MIC ([6]; Serratia marcescens): 1.56 µg/mL; MIC ([7]; Pseudomonas aeruginosa): 1.56 µg/mL; MIC [23]: 3.13 µg/mL; MIC [24]: 1.56 µg/mL; MIC [25]: 0.78 µg/mL; MIC [26]: 25 µg/mL; MIC [27]: 25 µg/mL; MIC ([28]; Enterobacter cloacae): 1.56 µg/mL; MIC [29]: 0.2 µg/mL
